In patent publication US11560366B2, “Bicyclo[1.1.1]pentane inhibitors of dual leucine zipper (DLK) kinase for the treatment of disease” (Board of Regents, The University of Texas System, priority 2019, dated 2023):

Key:
human DLK = human DLK (Homo sapiens (Human), UniProt Q12852); experiment: DLK Kd determination (KINOMEscan KdELECT, DiscoveRx); format: binding; conditions: read-out: Kd
Method: The DLK dissociation constants (Kd) have been determined in the KINOMEscan KdELECT Service at DiscoveRx.
A fusion protein of full length of human DLK (amino acids 1-859) and the DNA binding domain of NFkB was expressed in transiently transfected HEK293 cells. From these HEK 293 cells, extracts were prepared in M-PER extraction buffer (Pierce) in the presence of Protease Inhibitor Cocktail Complete (Roche) and Phosphatase Inhibitor Cocktail Set II (Merck) per manufacturers' instructions. The DLK fusion protein was labeled with a chimeric double-stranded DNA tag containing the NFkB binding site (5′-[sequence]-3′, SEQ ID NO:1) fused to an amplicon for qPCR readout, which was added directly to the expression extract (the final concentration of DNA-tag in the binding reaction is 0.1 nM).
The liganded beads were blocked with excess biotin and washed with blocking buffer (SeaBlock (Pierce), 1% BSA, 0.05% Tween 20, 1 mM DTT) to remove unbound ligand and to reduce nonspecific binding.
Extracts were used directly in binding assays without any enzyme purification steps at a >10,000-fold overall stock dilution (final DNA-tagged enzyme concentration <0.1 nM). Extracts were loaded with DNA-tag and diluted into the binding reaction in a two step process. First extracts were diluted 1:100 in 1× binding buffer (PBS/0.05% Tween 20/10 mM DTT/0.1% BSA/2 μg/ml sonicated salmon sperm DNA) containing 10 nM DNA-tag. This dilution was allowed to equilibrate at room temperature for 15 minutes and then subsequently diluted 1:100 in 1× binding buffer. Test compounds were prepared as 111× stocks in 100% DMSO. Kds were determined using an 11-point 3-fold compound dilution series with three DMSO control points. […] The compounds were then diluted directly into the assays such that the final concentration of DMSO was 0.9%. All reactions performed in polypropylene 384-well plates. Each was a final volume of 0.02 mL. Assays were incubated with shaking for 1 hour at room temperature. Then the beads were pelleted and washed with wash buffer (1×PBS, 0.05% Tween 20) to remove displaced kinase and test compound. […] The kinase concentration in the eluates was measured by qPCR. qPCR reactions were assembled by adding 2.5 μL of kinase eluate to 7.5 μL of qPCR master mix containing 0.15 μM amplicon primers and 0.15 μM amplicon probe.
Test compounds were prepared as 111× stocks in 100% DMSO. Kds were determined using an 11-point 3-fold compound dilution series with three DMSO control points. […] The compounds were then diluted directly into the assays such that the final concentration of DMSO was 0.9%. The Kds were determined using a compound top concentration of 30,000 nM. Kd measurements were performed in duplicate.
Binding constants (Kds) were calculated with a standard dose-response curve using the Hill equation:
The Hill Slope was set to −1.

[1] = Mouse pharmacokinetics, single dose; format: in vivo, male C57BL/6 mice; conditions: for Kp / unbound brain-to-plasma ratio (Kp,uu): male, C57BL/6, mouse, brain and plasma, po, 10 mg/kg, based on AUC; for Kp / unbound brain-to-plasma ratio (Kp,uu) / clearance / half-life / Vd / AUC(0-t) / Cmax / bioavailability: male C57BL/6 mice; for Kp / unbound brain-to-plasma ratio (Kp,uu) / AUC(0-t) / Cmax / bioavailability: oral dose 10 mg/kg; for Kp: read-out: Brain/Plasma Ratio; for unbound brain-to-plasma ratio (Kp,uu): read-out: Free Brain/Plasma Ratio; for clearance / half-life / Vd / AUC(0-t) / Cmax / bioavailability: mouse; for clearance / half-life / Vd: in vivo, IV dose 0.3 mg/kg (1a, 4b, 13, 14b, 16; IV dose of 8a, 9b not stated); for Vd: read-out: Vss; for AUC(0-t) / Cmax / bioavailability: plasma; for clearance in mice, comparison in words / half-life in mice, comparison in words: relative to comparator compounds 13 or 14b
[2] = Rat pharmacokinetics, single dose; format: in vivo, Wistar Han rats; conditions: for clearance / half-life / Vd / AUC(0-t) / Cmax / bioavailability: rat, in vivo, Wistar Han rats; for clearance / half-life / Vd: IV dose 1 mg/kg; for Vd: read-out: Vss; for AUC(0-t) / Cmax / bioavailability: oral dose 3 mg/kg; for clearance in rats, comparison in words / half-life in rats, comparison in words: relative to comparator compound 13
Method: Pharmacokinetics for compounds 13, 1a, and 9b were determined using single dosage of Wistar Han rats using techniques that are well known in the art.

[3] = Metabolic stability in liver microsomes, mouse; format: in vitro ADME, CD-1 mouse; conditions: CD-1, liver microsomes, 0.5 mg/mL microsomes, NADPH, 45 minutes, 37° C., read-out: Half-life in liver microsomes (t1/2, minutes)
Method: (§1) The test compound was incubated with liver microsomes (0.5 mg/mL) from CD-1 mouse, Sprague Dawley rat, Beagle dog, Cynomolgus monkey, and human in the presence of NADPH for 45 minutes at 37° C. The % parent remaining over time was determined by LC-MS/MS, using peak area ratios. Half-life (t1/2) was calculated using the following equation: t1/2=ln2/k, where k is the rate constant of parent decay over time (slope of the plot of log[% parent remaining] versus time).

[4] = Metabolic stability in liver microsomes, rat; format: in vitro ADME; conditions: Sprague Dawley, 0.5 mg/mL microsomes, NADPH, 45 minutes, 37° C., read-out: Half-life in liver microsomes (t1/2, minutes)
Method: as §1

[5] = Metabolic stability in liver microsome preparations, overall comparison; format: in vitro ADME; conditions: relative to comparator compounds 13 or 14/14b (WO2018207072)
Method: as §1

[6] = Metabolic stability in liver microsomes, dog; format: in vitro ADME; conditions: Beagle, 0.5 mg/mL microsomes, NADPH, 45 minutes, 37° C., read-out: Half-life in liver microsomes (t1/2, minutes)
Method: as §1

[7] = Metabolic stability in liver microsomes, monkey; format: in vitro ADME, Cynomolgus monkey; conditions: 0.5 mg/mL microsomes, NADPH, 45 minutes, 37° C., read-out: Half-life in liver microsomes (t1/2, minutes)
Method: as §1

[8] = Metabolic stability in liver microsomes, human; format: in vitro ADME; conditions: 0.5 mg/mL microsomes, NADPH, 45 minutes, 37° C., read-out: Half-life in liver microsomes (t1/2, minutes)
Method: as §1

Sequence of human DLK (Q12852 whole entry): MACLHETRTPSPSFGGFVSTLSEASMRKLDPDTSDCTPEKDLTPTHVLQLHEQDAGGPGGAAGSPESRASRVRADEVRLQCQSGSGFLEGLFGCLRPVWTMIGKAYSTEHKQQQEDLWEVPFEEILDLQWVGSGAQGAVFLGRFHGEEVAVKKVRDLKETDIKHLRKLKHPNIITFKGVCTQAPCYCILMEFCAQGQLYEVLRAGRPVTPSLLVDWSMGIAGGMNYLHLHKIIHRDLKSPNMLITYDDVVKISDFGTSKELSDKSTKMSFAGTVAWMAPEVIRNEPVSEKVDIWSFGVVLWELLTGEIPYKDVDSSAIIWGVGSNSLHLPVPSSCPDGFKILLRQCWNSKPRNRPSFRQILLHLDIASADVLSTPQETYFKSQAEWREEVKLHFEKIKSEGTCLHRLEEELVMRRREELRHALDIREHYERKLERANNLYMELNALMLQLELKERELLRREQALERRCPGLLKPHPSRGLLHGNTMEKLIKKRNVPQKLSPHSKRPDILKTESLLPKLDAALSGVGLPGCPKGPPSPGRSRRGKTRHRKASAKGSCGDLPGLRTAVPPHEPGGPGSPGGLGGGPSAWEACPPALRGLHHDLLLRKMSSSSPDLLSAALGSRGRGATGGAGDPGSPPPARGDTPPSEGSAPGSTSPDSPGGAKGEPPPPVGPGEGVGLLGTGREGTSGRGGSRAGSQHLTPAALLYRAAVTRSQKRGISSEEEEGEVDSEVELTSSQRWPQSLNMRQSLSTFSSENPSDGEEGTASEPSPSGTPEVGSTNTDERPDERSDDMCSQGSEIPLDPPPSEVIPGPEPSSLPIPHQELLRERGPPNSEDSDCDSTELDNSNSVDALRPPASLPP

Nc1ncc(-c2cn(C34CC(F)(C3)C4)c([C@@H](O)C(F)(F)F)n2)cc1OC(F)(F)F (single isomer, unassigned) [Example 1a]
Kd (human DLK): 2.2 nM | Kp [1]: 1.77 | unbound brain-to-plasma ratio (Kp,uu) [1]: 0.92 | clearance [1]: 4.3 mL/min/kg | half-life [1]: 762 min | Vd [1]: 4.5 L/kg | AUC(0-t) [1]: 111 µM·h | Cmax [1]: 6.36 µM | bioavailability [1]: 154% | clearance in mice, comparison in words [1]: reduced clearance | half-life in mice, comparison in words [1]: longer half-life | clearance [2]: 5.9 mL/min/kg | half-life [2]: 690 min | Vd [2]: 4.9 L/kg | AUC(0-t) [2]: 16.8 µM·h | Cmax [2]: 1310 nM | bioavailability [2]: 103% | clearance in rats, comparison in words [2]: reduced clearance | half-life in rats, comparison in words [2]: longer half-life | half-life [3]: 378 min | half-life [4]: 154 min | microsomal stability, comparison in words [5]: improvements to microsomal stability | half-life [6]: 287 min | half-life [7]: 182 min | half-life [8]: 558 min

Nc1ncc(-c2cn(C34CC(N5CCC(F)(F)CC5)(C3)C4)c([C@H](O)C(F)(F)F)n2)cc1OC(F)(F)F (single isomer, unassigned) [Example 9b]
Kd (human DLK): 1 nM | Kp [1]: 0.7 | unbound brain-to-plasma ratio (Kp,uu) [1]: 0.31 | clearance [1]: 3.9 mL/min/kg | half-life [1]: 954 min | Vd [1]: 4.8 L/kg | AUC(0-t) [1]: 39.6 µM·h | Cmax [1]: 2.31 µM | bioavailability [1]: 70.5% | clearance in mice, comparison in words [1]: reduced clearance | half-life in mice, comparison in words [1]: longer half-life | clearance [2]: 2.8 mL/min/kg | half-life [2]: 1360 min | Vd [2]: 4.7 L/kg | AUC(0-t) [2]: 19.2 µM·h | Cmax [2]: 1050 nM | bioavailability [2]: 95.9% | clearance in rats, comparison in words [2]: reduced clearance | half-life in rats, comparison in words [2]: longer half-life | half-life [3]: 240 min | half-life [4]: 581 min | microsomal stability, comparison in words [5]: improvements to microsomal stability | half-life [6]: 240 min | half-life [7]: 331 min | half-life [8]: 297 min
